Experimental data reported in ChEMBL document CHEMBL5154758, “Structure-Activity Relationship Study of Indolin-5-yl-cyclopropanamine Derivatives as Selective Lysine Specific Demethylase 1 (LSD1) Inhibitors” (J Med Chem, 2022).
Calls of active or inactive are those of the source. No cut-off for these calls is given here.

Columns and labels:
[1] = target: T1, Amine oxidase [flavin-containing] B (Homo sapiens, UniProt P27338); assay: biochemical
T1 sequence (P27338 whole entry): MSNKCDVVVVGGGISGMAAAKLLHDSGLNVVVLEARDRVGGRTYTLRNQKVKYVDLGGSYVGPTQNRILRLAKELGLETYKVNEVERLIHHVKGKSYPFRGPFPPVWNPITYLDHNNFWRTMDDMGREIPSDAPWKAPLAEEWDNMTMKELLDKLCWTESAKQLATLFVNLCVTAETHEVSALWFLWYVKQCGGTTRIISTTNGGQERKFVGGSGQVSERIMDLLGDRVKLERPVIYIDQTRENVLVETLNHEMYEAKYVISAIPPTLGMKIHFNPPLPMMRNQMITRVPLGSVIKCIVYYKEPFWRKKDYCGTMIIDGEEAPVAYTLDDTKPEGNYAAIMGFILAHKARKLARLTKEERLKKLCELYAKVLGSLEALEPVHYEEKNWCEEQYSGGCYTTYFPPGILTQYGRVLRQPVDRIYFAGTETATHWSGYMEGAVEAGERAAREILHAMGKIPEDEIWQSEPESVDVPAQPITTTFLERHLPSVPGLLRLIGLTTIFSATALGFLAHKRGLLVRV
Description: Inhibition of human recombinant MAO-B expressed in baculovirus infected BTI insect cells using luminogenic MAO substrate incubated for 1 hr by luciferin-based luminescence assay

[2] = target: T2, Amine oxidase [flavin-containing] A (Homo sapiens, UniProt P21397); assay: biochemical
T2 sequence (P21397 whole entry): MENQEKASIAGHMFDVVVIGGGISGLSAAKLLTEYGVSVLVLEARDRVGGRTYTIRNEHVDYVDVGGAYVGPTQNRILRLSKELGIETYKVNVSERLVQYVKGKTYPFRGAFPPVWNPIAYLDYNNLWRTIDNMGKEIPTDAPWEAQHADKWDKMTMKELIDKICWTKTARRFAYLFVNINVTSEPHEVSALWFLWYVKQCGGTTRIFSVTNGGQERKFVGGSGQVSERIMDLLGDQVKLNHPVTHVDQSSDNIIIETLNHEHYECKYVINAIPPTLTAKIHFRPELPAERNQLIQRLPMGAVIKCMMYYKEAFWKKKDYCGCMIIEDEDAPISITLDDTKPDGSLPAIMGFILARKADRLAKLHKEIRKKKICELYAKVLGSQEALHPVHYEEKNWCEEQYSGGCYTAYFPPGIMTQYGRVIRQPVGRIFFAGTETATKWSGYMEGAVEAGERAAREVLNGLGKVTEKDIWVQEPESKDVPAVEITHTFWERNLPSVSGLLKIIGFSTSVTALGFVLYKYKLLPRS
Description: Inhibition of human recombinant MAO-A expressed in baculovirus infected BTI insect cells using luminogenic MAO substrate incubated for 1 hr by luciferin-based luminescence assay

[3] = test system: MV4-11; assay: Antiproliferative activity against human MV4-11 cells assessed as inhibition of cell growth incubated for 240 hrs by MTS assay; format: functional, cell-based; settings: MV4-11, 240 h
[4] = test system: RPMI-8226; assay: Antiproliferative activity against human RPMI-8226 cells assessed as inhibition of cell growth incubated for 240 hrs by MTS assay; format: functional, cell-based; settings: RPMI-8226, 240 h
[5] = target: Lysine-specific histone demethylase 1A (Homo sapiens) (UniProt O60341); settings: dose 300.0 nM, time 1.0 hrs
[6] = target: T2, Amine oxidase [flavin-containing] A; assay: Inhibition of human MAOA
[7] = test system: MV4-11; assay: Induction of differentiation of human MV4-11 cells assessed as morphological changes by measuring segmented nucleus at 5 uM incubated for 240 hrs by Wright-Giemsa staining based microscopy; format: functional, cell-based
[8] = test system: MV4-11; assay: Induction of differentiation of human MV4-11 cells assessed as morphological changes by measuring reduction in nuclear to cytoplasmic ratio at 5 uM incubated for 240 hrs by Wright-Giemsa staining based microscopy; format: functional, cell-based
[9] = Upregulation of CD86 expression in human MV4-11 cells assessed as fold change in CD86 expression at IC50 incubated for 24 hrs by qRT-PCR analysis relative to control; format: functional
[10] = target: T1, Amine oxidase [flavin-containing] B; assay: Inhibition of human MAOB
[11] = target: T3, Lysine-specific histone demethylase 2 (Homo sapiens, UniProt Q8NB78); assay: Inhibition of recombinant human full length LSD2 using biotinylated H3K4Me2 peptide as substrate by TR-FRET assay
T3 sequence (Q8NB78 whole entry): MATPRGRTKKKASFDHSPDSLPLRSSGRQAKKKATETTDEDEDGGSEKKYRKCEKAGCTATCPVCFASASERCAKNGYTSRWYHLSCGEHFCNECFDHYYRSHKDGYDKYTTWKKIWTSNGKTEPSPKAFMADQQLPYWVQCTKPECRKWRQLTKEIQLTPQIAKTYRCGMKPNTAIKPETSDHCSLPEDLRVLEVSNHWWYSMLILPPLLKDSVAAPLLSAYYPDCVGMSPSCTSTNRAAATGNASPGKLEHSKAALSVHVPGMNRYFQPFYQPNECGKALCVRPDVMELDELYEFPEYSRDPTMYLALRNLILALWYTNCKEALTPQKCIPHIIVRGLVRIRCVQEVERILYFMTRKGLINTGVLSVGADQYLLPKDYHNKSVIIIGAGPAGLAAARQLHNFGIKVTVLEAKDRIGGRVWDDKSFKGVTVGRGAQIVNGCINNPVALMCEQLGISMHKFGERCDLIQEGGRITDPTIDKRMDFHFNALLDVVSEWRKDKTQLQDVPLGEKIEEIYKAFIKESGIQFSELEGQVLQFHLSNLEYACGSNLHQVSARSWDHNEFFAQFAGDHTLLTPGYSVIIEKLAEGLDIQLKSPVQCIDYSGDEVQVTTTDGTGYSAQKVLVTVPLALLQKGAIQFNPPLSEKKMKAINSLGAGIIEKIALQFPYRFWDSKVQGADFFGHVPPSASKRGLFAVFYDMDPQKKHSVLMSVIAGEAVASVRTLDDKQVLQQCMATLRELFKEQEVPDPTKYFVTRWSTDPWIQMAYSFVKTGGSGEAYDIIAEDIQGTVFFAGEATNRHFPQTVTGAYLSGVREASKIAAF

[12] = target: T3, Lysine-specific histone demethylase 2; assay: Inhibition of human LSD2
[13] = test system: MV4-11; assay: Activation of CD86 expression in human MV4-11 cells incubated for 24 hrs by qRT-PCR analysis; format: functional, cell-based; settings: MV4-11, 24 h

IC50 [1] | IC50 [2] | IC50 [3] | Structure (SMILES) | other results
> 100 µM | > 100 µM | 1.21 µM | O=S(=O)(c1ccccc1)N1CCc2cc(C3CC3NCCC3CCNCC3)ccc21 (trans isomer) | IC50 [4]: > 20 µM
> 100 µM | > 100 µM | 18.8 µM | CCCC(=O)N1CCc2cc(C3CC3NCC3CCNCC3)ccc21 (centres undefined) | –
> 100 µM | > 100 µM | – | CCCCC(=O)N1CCc2cc(C3CC3NCC3CCNCC3)ccc21 (centres undefined) | –
> 100 µM | > 100 µM | 2.39 µM | CS(=O)(=O)N1CCc2cc(C3CC3NCC3CCNCC3)ccc21 (centres undefined) | –
> 100 µM | – | – | COc1cccc(S(=O)(=O)N2CCc3cc(C4CC4NCC4CCNCC4)ccc32)c1 (trans isomer) | –
– | 8640 µM | – | O=S(=O)(N1CCc2cc(C3CC3NCC3CCNCC3)ccc21)C(F)(F)F (trans isomer) | –
– | > 100 µM | 4.14 µM | O=C(c1ccccc1)N1CCc2cc(C3CC3NCC3CCNCC3)ccc21 (trans isomer) | –
> 100 µM | > 100 µM | 2.52 µM | CCS(=O)(=O)N1CCc2cc(C3CC3NCC3CCNCC3)ccc21 (trans isomer) | –
> 100 µM | > 100 µM | 1.19 µM | O=C(O)c1ccc(CN2CCC(CN[C@@H]3C[C@H]3c3ccccc3)CC2)cc1 [GSK2879552] | inhibition [5]: Active; IC50 [6]: > 100 µM; Activity [7]: Active; Activity [8]: Active; fold change (FC) [9]: 10.15; IC50 [10]: > 100 µM; IC50 [11]: > 100 µM; IC50 [12]: > 100 µM; EC50 [13]: 0.023 µM; IC50 [4]: > 20 µM
> 100 µM | > 100 µM | – | O=C(Cc1ccccc1)N1CCc2cc(C3CC3NCC3CCNCC3)ccc21 (trans isomer) | –
